{"source": "patent US11129801B2", "about": "(SigmaThera SAS, priority 2016, dated 2021)", "key": {"sigma-1R": {"tested_on": "sigma-1R", "conditions": "read-out: IC50 / affinity for sigma-1R; cited from earlier work"}, "Aβ1-42": {"tested_on": "Aβ1-42", "test": "ELISA of cortical Aβ1-42, Aβ25-35 mouse model", "assay_type": "in vivo", "conditions": "Experiment 2, post-treatment", "method": "(§1) In Experiment 2, twelve mice per experimental group were administered Sc.Aβ or Aβ25-35-amyloid peptide on day 0 by i.c.v. injection. […] Animals were tested at day 7 and later.\n(§2) For each of Experiments 1-4, on day 7, all animals were tested for the spontaneous alternation performance in the Y-maze test, an index of spatial working memory. On day 8 and 9, the contextual long-term memory of the animals was assessed using the step-through type passive avoidance procedure. On day 9, immediately after the retention session, animals were sacrificed by decapitation and the hippocampus and cortex dissected out. Lipid peroxidation was analyzed in the hippocampus, whereas neuroinflammation, apoptosis, amyloid burden and hyperphosphorylation of tau protein were analyzed in cortex.\nEnzyme-linked immunosorbant assay (ELISA) assays: Contents in GFAP, Caspase 12, Amyloid-beta 1-40, Amyloid-beta 1-42, Total Tau, and pTau on Ser199 were analyzed by using commercial ELISA assay kit. • GFAP: Supplier: USCNK #Ref: SEA068Mu • Total Tau: Supplier: Novex #Ref: KMB7011 • pTau (S199): Supplier: Novex #Ref: KMB7041 • Amyloid beta 1-40: Supplier: Novex #Ref: KMB3481 • Amyloid beta 1-42: Supplier: Novex #Ref: KMB3441 • Caspase-12: Supplier: LSBio #Ref: LS-F11023 • BAX: Supplier: Euromedex#Ref: SEB343Mu • BCL2: Supplier: Euromedex #Ref: SEA778Mu […]"}, "[1]": {"tested_on": "hippocampal lipid peroxidation", "test": "Hippocampal lipid peroxidation (LPO) measurement, Aβ25-35 mouse model", "assay_type": "in vivo", "conditions": "for hippocampal LPO levels: 1 mg/kg", "method": "as §2\nSacrifice: At the end of the passive avoidance retention session, on day 9, the animals were sacrificed by decapitation. The hippocampi and frontal cortex were dissected out and kept at −80° C. until the measurement of lipid peroxidation and other markers.\nLipid peroxidation measurement: At day 24, 6 hippocampi from each group were used. After thawing, homogenates were homogenized in cold methanol ( 1/10 w/v), centrifuged at 1,000 g during 5 min and the supernatant placed in Eppendorf tube. The reaction volume of each homogenate was added to FeSO4 1 mM, H2SO4 0.25 M, xylenol orange 1 mM and incubated for 30 min at room temperature. After reading the absorbance at 580 nm (A5801), 10 μl of cumene hydroperoxyde (CHP) 1 mM was added to the sample and incubated for 30 min at room temperature, to determine the maximal oxidation level. The absorbance was measured at 580 nm (A5802). The level of lipid peroxidation was determined as CHP equivalents according to: CHPE=A5801/A5802×[CHP (nmol)] and expressed as CHP equivalents per wet weight of tissue and as percentage of control group data (Veh-treated Sc.Aβ-administered mice)."}, "[2]": {"tested_on": "sigma-1 receptor / BiP complex", "test": "Dissociation of BiP from sigma-1 receptor in CHO cells", "assay_type": "cell-based", "conditions": "1 μM and 10 μM, 30 min", "method": "CHO cells were grown in a 6-well plates and treated with the compounds in culture medium at 37° C. for 30 min at 1 μM and 10 μM final concentration. The reaction was stopped by medium removal and adding 3 mL PBS at 37° C. CHO cells were harvested and suspended in 50 mM HEPES (pH7.4) followed by cross-linking with 50 μg/ml of dithio (bis) succinimidyl propionate (Thermo Fisher Scientific, Waltham, Mass.) for 30 min at 4° C. The reaction was stopped by adding Tris-HCl (pH 8.8, final 50 mM). Fifteen minutes after incubation on ice, cells were lysed with RIPA buffer [50 mM Tris (pH7.4), 150 mM NaCl, 1% Triton X-100, 0.3% sodium deoxycholate, 0.1% SDS, protease inhibitor cocktail (Roche Complete)]. After centrifugation at 12,000 g, 1 min, the supernatant was incubated overnight at 4° C. with Sig-1R antibody (Abcam). The cell lysate was incubated with Sepharose protein-A (Invitrogen) for 90 min. After centrifugation at 12,000 g, 1 min, the supernatant was discarded and the pellet was washed in 0.5 mL RIPA buffer. After a second centrifugation at 12,000 g, 20 min, the supernatant was discarded and the pellet was washed in 0.5 mL 2× Sample buffer/bMCE buffer. Following a third centrifugation at 12,000 g, 1 min, the supernatant was analysed by ELISA assay, according to the manufacturer's protocol (USCNK #SEC343Mu)."}, "[3]": {"tested_on": "Aβ25-35 mouse model of Alzheimer's disease", "test": "Aβ25-35 mouse model, overall neuroprotection (summary statements)", "assay_type": "in vivo", "method": "The compound efficacy was evaluated 7 days after the peptide administration on the attenuation of the Aβ25-35-induced learning deficits (spatial working memory using the spontaneous alternation in the Y-maze test, and contextual long-term memory using the passive avoidance test).\nThe mice were tested 7 days post injection or at the indicated time points.\nas §1\nThe synergy/additivity/antagonism was evaluated by calculating the combination index. […] Animals were then tested at day 7 and later.\nAnimals were tested at day 7 and later.\nas §2"}}, "data": [{"smiles": "CCC(C/C=C/c1ccccc1)(c1ccccc1)N(C)CC1CC1", "note": "(single isomer, unassigned; (+)) [igmesine, (+)-(E)-N-(cyclopropylmethyl)-N-methyl-3,6-diphenylhex-5-en-3-amine]", "values": [{"measurement": "IC50", "setting": "sigma-1R", "value": "39 ± 8", "unit": "nM"}, {"measurement": "cortical Aβ1-42 elevation", "setting": "Aβ1-42", "value": "fully normalized"}, {"measurement": "hippocampal LPO levels", "setting": "[1]; Experiment 1, pre-treatment", "value": "fully normalized"}, {"measurement": "hippocampal LPO levels", "setting": "[1]; Experiment 2, post-treatment", "value": "fully normalized"}, {"measurement": "synergy on hippocampal LPO with donepezil", "setting": "[1]; Experiment 3, igmesine 0.1 mg/kg + donepezil […]", "value": "did synergize"}, {"measurement": "synergy on hippocampal LPO with memantine", "setting": "[1]; Experiment 3, igmesine 0.1 mg/kg + memantine", "value": "synergy was not present"}, {"measurement": "dissociation of BiP from sigma-1 receptor", "setting": "[2]", "value": "produced the dissociation of BiP from sigma-1 receptor in a dose-dependent manner"}, {"measurement": "dose in combination versus dose active on depression (fold lower)", "setting": "[3]; combined with donepezil, ibuprofen, selegiline or atorvastatin", "value": 300, "unit": "fold"}, {"measurement": "lowest dose with effect, preventive treatment", "setting": "[3]; given 20 min before Aβ25-35", "value": 0.3, "unit": "mg/kg"}, {"measurement": "lowest dose with effect, curative treatment", "setting": "[3]; starting 1 day after induction of the toxicity", "value": 1, "unit": "mg/kg"}, {"measurement": "synergistic effect in combination", "setting": "[3]; with donepezil, ibuprofen, selegiline or atorvastatin, not with memantine", "value": "clear synergistic effect"}]}]}
